Assay results published in patent US20100179153A1, “Bicyclic S1P Receptor Modulators” (priority 2007, published 2010).

How the values were obtained:
Format in all cases: biochemical
human S1P5 receptor = biological target: T1, human S1P5 receptor (Homo sapiens, UniProt Q9H228); experiment: 35S-GTPγS binding assay (SPA), S1P5; settings: membrane protein from transfected CHO cells; for EC50: read-out: EC50 for receptor subtype S1P5
T1 construct: expressed in transfected cells; host or cells: CHO-K1 (ATCC CCL 61); RH7777 may also be used
Description: (§1) Test 1: ^355-GTPγS Binding Assay
(§2) The S1P receptor modulating properties of an agent of the invention are tested on the human S1P1, S1P2, S1P3, S1P4 and S1P5, respectively, receptor subtypes. The functional receptor activation is assessed by quantifying the compound-induced ^35S-GTPγS binding to membrane protein prepared from transfected heterologous cells stably expressing the appropriate S1P receptor subtype. CHO cells (CHO-K1, Chinese hamster, ATCC no. CCL 61) are used [RH7777 cells (rat Morris hepatoma, ATCC no. CRL 1601) may also be used]. The membrane protein is prepared from wild-type cells and from different cell clones expressing the appropriate S1P receptor subtype. The assay technology used is SPA (scintillation proximity based assay). A DMSO solution of the test compound is serially diluted and added to SPA-bead (Amersham-Pharmacia) immobilised S1P receptor subtype expressing membrane protein (1 to 20 μg/well) in the presence of 50 mM HEPES, 100 mM NaCl, 10 mM MgCl2, 10 μM GDP, 0.1% fat free BSA and 0.2 nM ^35S-GTPγS (1200 Ci/mmol) (pH 7.4). After incubation in 96 well microtiter plates at room temperature for 120 minutes, the unbound ^35S-GTPγS is separated by centrifugation. The luminescence of SPA beads triggered by membrane bound ^35S-GTPγS is quantified with a TOPcount plate reader (Packard). To evaluate the S1P receptor modulation, the stimulation (in %) compared to the baseline is calculated as the binding in the presence of the compound divided by the binding in the absence of a ligand, multiplied by 100. Dose response curves are plotted using a non-linear regression curve fitting program, and the EC50 is defined as the concentration of the compound required to give 50% of its maximum stimulation. Preferably, the EC50 value of an agent of the invention in this test is 10′000 nM or less. The selectivity of the compound towards the S1P receptor subtypes is determined by measuring for each of the different S1P receptor subtypes the level of ^35S-GTPγS binding in the presence of the compound using each of the different membrane proteins.

human S1P1 receptor = biological target: T2, human S1P1 receptor (Homo sapiens, UniProt P21453); experiment: 35S-GTPγS binding assay (SPA), S1P1; settings: membrane protein from transfected CHO cells
T2 construct: expressed in transfected cells; host or cells: CHO-K1 (ATCC CCL 61); RH7777 may also be used
Description: as §1
as §2, with “A DMSO solution of the test compound is serially diluted and added to SPA-bead (Amersham-Pharmacia) immobilised S1P receptor subtype expressing membrane protein (1 to 20 μg/well) in the presence of 50 mM HEPES, 100 mM NaCl, 10 mM MgCl2, 10 μM GDP, 0.1% fat free BSA and 0.2 nM ^35S-GTPγS (1200 Ci/mmol) (pH 7.4). After incubation in 96 well microtiter plates at room temperature for 120 minutes, the unbound ^35S-GTPγS is separated by centrifugation.” left out, “Dose response curves are plotted using a non-linear regression curve fitting program, and the EC50 is defined as the concentration of the compound required to give 50% of its maximum stimulation. Preferably, the EC50 value of an agent of the invention in this test is 10′000 nM or less.” left out

human S1P4 receptor = biological target: T3, human S1P4 receptor (Homo sapiens, UniProt O95977); experiment: 35S-GTPγS binding assay (SPA), S1P4; settings: membrane protein from transfected CHO cells
T3 construct: expressed in transfected cells; host or cells: CHO-K1 (ATCC CCL 61); RH7777 may also be used
T3 sequence (O95977 1-384): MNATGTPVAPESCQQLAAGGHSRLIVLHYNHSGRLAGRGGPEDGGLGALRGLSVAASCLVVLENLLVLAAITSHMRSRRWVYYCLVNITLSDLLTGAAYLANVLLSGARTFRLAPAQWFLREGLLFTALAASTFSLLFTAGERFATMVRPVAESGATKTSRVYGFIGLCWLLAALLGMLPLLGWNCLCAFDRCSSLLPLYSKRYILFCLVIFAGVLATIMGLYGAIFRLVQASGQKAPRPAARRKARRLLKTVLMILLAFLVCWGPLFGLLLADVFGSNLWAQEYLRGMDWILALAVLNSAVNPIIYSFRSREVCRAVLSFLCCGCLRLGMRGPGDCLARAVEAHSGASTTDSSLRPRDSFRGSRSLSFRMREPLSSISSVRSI
Description: as §1
as §2, with “A DMSO solution of the test compound is serially diluted and added to SPA-bead (Amersham-Pharmacia) immobilised S1P receptor subtype expressing membrane protein (1 to 20 μg/well) in the presence of 50 mM HEPES, 100 mM NaCl, 10 mM MgCl2, 10 μM GDP, 0.1% fat free BSA and 0.2 nM ^35S-GTPγS (1200 Ci/mmol) (pH 7.4). After incubation in 96 well microtiter plates at room temperature for 120 minutes, the unbound ^35S-GTPγS is separated by centrifugation.” left out, “Dose response curves are plotted using a non-linear regression curve fitting program, and the EC50 is defined as the concentration of the compound required to give 50% of its maximum stimulation. Preferably, the EC50 value of an agent of the invention in this test is 10′000 nM or less.” left out

T1 sequence (Q9H228 whole entry): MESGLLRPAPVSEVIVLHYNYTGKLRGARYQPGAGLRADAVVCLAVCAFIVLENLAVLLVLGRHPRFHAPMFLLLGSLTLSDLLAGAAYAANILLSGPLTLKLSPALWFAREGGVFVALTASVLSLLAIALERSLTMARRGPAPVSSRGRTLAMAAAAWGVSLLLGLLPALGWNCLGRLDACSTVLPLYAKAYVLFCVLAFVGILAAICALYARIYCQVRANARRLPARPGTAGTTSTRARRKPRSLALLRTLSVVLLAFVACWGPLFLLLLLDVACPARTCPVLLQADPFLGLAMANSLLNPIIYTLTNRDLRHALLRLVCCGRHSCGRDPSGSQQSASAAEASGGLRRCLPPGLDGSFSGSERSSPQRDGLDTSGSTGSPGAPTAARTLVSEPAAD
T2 sequence (P21453 whole entry): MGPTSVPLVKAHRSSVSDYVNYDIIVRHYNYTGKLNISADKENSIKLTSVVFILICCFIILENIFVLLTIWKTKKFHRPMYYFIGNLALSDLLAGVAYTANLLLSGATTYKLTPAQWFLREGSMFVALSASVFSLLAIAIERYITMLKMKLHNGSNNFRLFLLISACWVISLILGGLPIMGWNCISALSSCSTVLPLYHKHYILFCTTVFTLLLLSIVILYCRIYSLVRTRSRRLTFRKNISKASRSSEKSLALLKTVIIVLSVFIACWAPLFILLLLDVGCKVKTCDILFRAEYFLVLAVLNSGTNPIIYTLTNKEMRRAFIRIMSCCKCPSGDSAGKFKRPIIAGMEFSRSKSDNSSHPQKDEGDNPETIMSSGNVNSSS

| efficacy at S1P5 (human S1P5 receptor) [%] | EC50 (human S1P5 receptor) [nM] | efficacy at S1P1 (human S1P1 receptor) [%] | efficacy at S1P4 (human S1P4 receptor) [%] | EC50 (human S1P4 receptor; read-out: EC50 for receptor subtype S1P4) [nM] | Compound |
| --- | --- | --- | --- | --- | --- |
| 81 | 27 | 73 |  |  | CCc1cc(F)cc(CC)c1Nc1cccc2c(C)n[nH]c(=O)c12 [Example 8, 8-(2,6-Diethyl-4-fluoro-phenylamino)-4-methyl-2H-phthalazin-1-one] |
| 80 | 117 | 58 | 74 | 929 | Cc1cc(F)cc(C)c1Nc1cccc2c(C)n[nH]c(=O)c12 [Example 4, 8-(4-Fluoro-2,6-dimethyl-phenylamino)-4-methyl-2H-phthalazin-1-one] |
